{"source": "patent US20050256182A1", "about": "“Formulations of anti-pain agents and methods of using the same” (priority 2004, published 2005)", "assay": "Crossover PK study: sumatriptan plasma levels (LC/MS/MS) after ID, junctional or SC administration; Tmax, Cmax, AUC, relative F", "format": "in vivo", "details": "Yucatan miniswine, mean; for AUC 0-10 min: Yucatan, minipig, plasma, AUC 10 min.", "key": {"[1]": {"details": "3 × 3 mm × 34 g, 12 mg/ml, 5 minutes metered bolus"}, "[2]": {"details": "SC, 12 mg/ml (reference condition)"}}, "description": "Percent (%) relative Bioavailability (F) for each dosing condition was calculated compared to the SC condition: [formula]", "data": [{"smiles": "CNS(=O)(=O)Cc1ccc2[nH]cc(CCN(C)C)c2c1", "note": "[sumatriptan, 3-[2-(dimethylamino)ethyl]-N-methyl-indole-5-methanesulfonamide]", "values": [{"measurement": "C max", "setting": "1 × 2 mm × 30 g, 30 mg/ml", "value": 849.333, "unit": "ng/mL"}, {"measurement": "C max", "setting": "1 × 3 mm × 30 g, 30 mg/ml", "value": 836.667, "unit": "ng/mL"}, {"measurement": "C max", "setting": "[1]", "value": 705.833, "unit": "ng/mL"}, {"measurement": "rel. F 10 min", "setting": "[2]", "value": 100.000, "unit": "%"}, {"measurement": "rel. F Total", "setting": "[2]", "value": 100.000, "unit": "%"}, {"measurement": "AUC 0-10 min", "setting": "1 × 1.5 mm × 30 g, 0 mg/ml", "value": 84.7, "unit": "ng·h/mL"}, {"measurement": "AUC 0-10 min", "setting": "1 × 2 mm × 30 g, 30 mg/ml", "value": 75.2, "unit": "ng·h/mL"}, {"measurement": "AUC 0-10 min", "setting": "1 × 3 mm × 30 g, 30 mg/ml", "value": 86.4, "unit": "ng·h/mL"}, {"measurement": "AUC 0-10 min", "setting": "3 × 2 mm × 34 g, 30 mg/ml", "value": 69.5, "unit": "ng·h/mL"}, {"measurement": "AUC 0-10 min", "setting": "[1]", "value": 52.8, "unit": "ng·h/mL"}, {"measurement": "AUC 0-10 min", "setting": "3 × 3 mm × 34 g, 30 mg/ml, 2 minute metered bolus", "value": 53.4, "unit": "ng·h/mL"}, {"measurement": "AUC 0-10 min", "setting": "iv, 12 mg/ml", "value": 59.8, "unit": "ng·h/mL"}, {"measurement": "AUC 0-10 min", "setting": "sc, 12 mg/ml", "value": 45.3, "unit": "ng·h/mL"}]}]}
